Experimental data from patent US6503943B1, “Platinum complex, its preparation and therapeutic application” (priority 1998, dated 2003).

Key:
[1] = test system: leucaemia L1210; assay: Antitumor effect at animals with leucaemia L1210, continual regimen (Example 7); assay type: in vivo, mice DBA2; conditions: for Survival (in % of control) / Survival time, Geom. mean: 1th-9th day
[2] = test system: mammal adenocarcinoma MC2111; assay: Antitumor effect at animals with solid form of mammal adenocarcinoma MC2111 (Example 9); assay type: in vivo, mice DBA1; conditions: 5th-13 day; for Tumor mass (%) of control / Tumor mass, Arithm. mean: tumor size 14th day, mass from regression
[3] = test system: ascitic form of Ehrlich tumor (ATE); assay: Antitumor effect at animals with ascitic form of Ehrlich tumor (ATE) (Example 11);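 as to all read-outs here: half of each dose group killed on day 10, tumor mass taken as animal mass lost on ascites aspiration, ascitocrit by microhematocrit centrifuge, rest followed daily for survival versus reference group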; conditions: for Survival (in % of control) / Survival time, Geom. mean / Total ascitocrit (%) of control / Total ascitocrit (mass of cell fraction of a tumor), Arithm. mean / Tumor mass (%) of control / Tumor mass, Arithm. mean: 1th-9th day; for Total ascitocrit (%) of control / Total ascitocrit (mass of cell fraction of a tumor), Arithm. mean / Tumor mass (%) of control / Tumor mass, Arithm. mean: dissection 10th day
Experimental: After termination of application, one half of animals in each dosage group was destroyed at 10th day after inoculation in ether narcosis, the ascits were sucked out after laparotomy and the mass of a tumor at each of the animals was determined from the difference of mass before and after sucking out the ascit. Ascitocrit in ascitic liquor of single animals was determined on microhematocrit centrifuge in heparinized capillary tubes of 75 mm length. The value of “total ascitocrit”corresponding to a mass of cells in ascitic liquor has been determined from percentage of ascitocrit and mass of the tumor. Remaining animals were left for monitoring the survival time. In these animals, the survival time was monitored on daily basis. The dependence of the survival time value on the applied dose was evaluated in comparison with the reference group.
The single estimated time points as biological responses were evaluated by a test of equivalence of two mean values (Student's t-test). Geometric mean was calculated from single values of survival time, arithmetic means were calculated from single values of tumor mass and total ascitocrit. Difference between mean values was evaluated by a test of equivalence of two mean values (Student's t-test) under presumption of normal probability distribution of mass values as well as of total ascitocrit values and of logarithmic/normal distribution of temporal values, all under presumption of possible unknown disseminations. Those diferences in mean values, whose values of a test criterium exceeded the critical value at the 5% and 1% significance level were evaluated as statistically significant and highly statistically significant, respectively.
The optimum dosage has been calculated from values of survival time according to the proportional risk model of Cox (Carter et al., 1982). Parameters of Weinbull distribution and logarithmic transformation of introductory data were used for estimation of a basic and modified survival function from experimental data.

CC(=O)[O][Pt]([NH2])([Cl])([Cl])([NH]C12CC3CC(C)(CC(C)(C3)C1)C2)[O]C(C)=O [LA-15, af-bis(Acetato)-b-(1amino-3.5-dimethyladamantane)-c-ammin-de-dichloroplatinum (IV) Complex]
Survival (in % of control) ([1]; 3 mg/kg/day p.o. 9x): 180% | Survival time, Geom. mean ([1]; 3 mg/kg/day p.o. 9x): 40.5 days | Survival (in % of control) ([1]; 6 mg/kg/day p.o. 9x): 217% | Survival time, Geom. mean ([1]; 6 mg/kg/day p.o. 9x): 48.8 days | Survival (in % of control) ([1]; 12 mg/kg/day p.o. 9x): 130% | Survival time, Geom. mean ([1]; 12 mg/kg/day p.o. 9x): 29.3 days | Evaluation of antitumor effect (survival time versus control), in words ([1]; in the dosages used, p.o.×9): antitumor effective | Increase of survival time value in comparison with the control group ([1]; in the dosages used, p.o.×9): 130% | Survival (in % of control) ([2]; 3 mg/kg/day p.o. 9x): 117% | Survival time, Geom. mean ([2]; 3 mg/kg/day p.o. 9x): 25.4 days | Tumor mass (%) of control ([2]; 3 mg/kg/day p.o. 9x): 90% | Tumor mass, Arithm. mean ([2]; 3 mg/kg/day p.o. 9x): 4.19 g | Survival (in % of control) ([2]; 6 mg/kg/day p.o. 9x): 127% | Survival time, Geom. mean ([2]; 6 mg/kg/day p.o. 9x): 27.6 days | Tumor mass (%) of control ([2]; 6 mg/kg/day p.o. 9x): 85% | Tumor mass, Arithm. mean ([2]; 6 mg/kg/day p.o. 9x): 3.95 g | Survival (in % of control) ([2]; 12 mg/kg/day p.o. 9x): 118% | Survival time, Geom. mean ([2]; 12 mg/kg/day p.o. 9x): 25.5 days | Tumor mass (%) of control ([2]; 12 mg/kg/day p.o. 9x): 80% | Tumor mass, Arithm. mean ([2]; 12 mg/kg/day p.o. 9x): 3.74 g | Survival (in % of control) ([3]; 3 mg/kg/day p.o. 9x): 99% | Survival time, Geom. mean ([3]; 3 mg/kg/day p.o. 9x): 8.8 days | Total ascitocrit (%) of control ([3]; 3 mg/kg/day p.o. 9x): 123% | Total ascitocrit (mass of cell fraction of a tumor), Arithm. mean ([3]; 3 mg/kg/day p.o. 9x): 0.84 g | Tumor mass (%) of control ([3]; 3 mg/kg/day p.o. 9x): 89% | Tumor mass, Arithm. mean ([3]; 3 mg/kg/day p.o. 9x): 3.51 g | Survival (in % of control) ([3]; 6 mg/kg/day p.o. 9x): 108% | Survival time, Geom. mean ([3]; 6 mg/kg/day p.o. 9x): 9.6 days | Total ascitocrit (%) of control ([3]; 6 mg/kg/day p.o. 9x): 59% | Total ascitocrit (mass of cell fraction of a tumor), Arithm. mean ([3]; 6 mg/kg/day p.o. 9x): 0.40 g | Tumor mass (%) of control ([3]; 6 mg/kg/day p.o. 9x): 53% | Tumor mass, Arithm. mean ([3]; 6 mg/kg/day p.o. 9x): 2.08 g | Mean value of the mass of cell fraction of the tumor (total ascitocrit) versus control, in words ([3]; 6 mg/kg/day p.o.×9): statistically significant lower | Survival (in % of control) ([3]; 12 mg/kg/day p.o. 9x): 97% | Survival time, Geom. mean ([3]; 12 mg/kg/day p.o. 9x): 8.6 days | Total ascitocrit (%) of control ([3]; 12 mg/kg/day p.o. 9x): 120% | Total ascitocrit (mass of cell fraction of a tumor), Arithm. mean ([3]; 12 mg/kg/day p.o. 9x): 0.82 g | Tumor mass (%) of control ([3]; 12 mg/kg/day p.o. 9x): 96% | Tumor mass, Arithm. mean ([3]; 12 mg/kg/day p.o. 9x): 3.77 g | Evaluation of antitumor effect (survival time versus control), in words ([3]; p.o.×9, Platidiam 8 and 4 mg/kg s.c.×1, Tab. 8.1): didnot increase the survival time statistically significant
